Assay results from the supplement of paper PMC10307832.

Tests used:
Test in all cases: relative viability (nuclei count vs DMSO), 5 days (fraction); higher = more cells survive
Selumetinib + AZD7762 = compound: Cn1cnc2c(F)c(Nc3ccc(Br)cc3Cl)c(C(=O)NOCCO)cc21 [Selumetinib] + NC(=O)Nc1cc(-c2cccc(F)c2)sc1C(=O)N[C@H]1CCCNC1 [AZD7762] (partner 0.2 µM)
In short: (§1)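 Values are medians from duplicate plates. Each reflects relative viability, defined as the nuclei count of treated wells over that of vehicle wells. Lung cancer cell lines in 1536-well plates were pin-tool dosed one day after seeding with one drug alone or with a fixed anchor-drug dose plus five library-drug doses (not always all listed) in √10 steps, then fixed, stained and imaged at 4× after 5 days.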

Venetoclax + Pictilisib = compound: CC1(C)CCC(CN2CCN(c3ccc(C(=O)NS(=O)(=O)c4ccc(NCC5CCOCC5)c([N+](=O)[O-])c4)c(Oc4cnc5[nH]ccc5c4)c3)CC2)=C(c2ccc(Cl)cc2)C1 [Venetoclax] + CS(=O)(=O)N1CCN(Cc2cc3nc(-c4cccc5[nH]ncc45)nc(N4CCOCC4)c3s2)CC1 [Pictilisib] (partner 1 µM)
In short: as §1

Venetoclax + Decitabine = compound: CC1(C)CCC(CN2CCN(c3ccc(C(=O)NS(=O)(=O)c4ccc(NCC5CCOCC5)c([N+](=O)[O-])c4)c(Oc4cnc5[nH]ccc5c4)c3)CC2)=C(c2ccc(Cl)cc2)C1 [Venetoclax] + Nc1ncn([C@H]2C[C@H](O)[C@@H](CO)O2)c(=O)n1 [Decitabine] (partner 2 µM)
In short: as §1

Selumetinib + Trametinib = compound: Cn1cnc2c(F)c(Nc3ccc(Br)cc3Cl)c(C(=O)NOCCO)cc21 [Selumetinib] + CC(=O)Nc1cccc(-n2c(=O)n(C3CC3)c(=O)c3c(Nc4ccc(I)cc4F)n(C)c(=O)c(C)c32)c1 [Trametinib] (partner 0.02 µM)
In short: as §1

Cell Line	relative viability (Selumetinib + AZD7762; first compound 0.02 µM)	relative viability (Selumetinib + AZD7762; first compound 0.06325 µM)	relative viability (Selumetinib + AZD7762; first compound 0.2 µM)	relative viability (Selumetinib + AZD7762; first compound 0.6325 µM)	relative viability (Venetoclax + Pictilisib; first compound 0.01 µM)	relative viability (Venetoclax + Pictilisib; first compound 0.03162 µM)	relative viability (Venetoclax + Pictilisib; first compound 0.1 µM)	relative viability (Venetoclax + Pictilisib; first compound 0.3162 µM)	relative viability (Venetoclax + Pictilisib; first compound 1 µM)	relative viability (Venetoclax + Decitabine; first compound 0.01 µM)	relative viability (Venetoclax + Decitabine; first compound 0.03162 µM)	relative viability (Venetoclax + Decitabine; first compound 0.1 µM)	relative viability (Venetoclax + Decitabine; first compound 0.3162 µM)	relative viability (Venetoclax + Decitabine; first compound 1 µM)	relative viability (Selumetinib + Trametinib; first compound 0.02 µM)	relative viability (Selumetinib + Trametinib; first compound 0.06325 µM)	relative viability (Selumetinib + Trametinib; first compound 0.2 µM)	relative viability (Selumetinib + Trametinib; first compound 0.6325 µM)
LU99A	0.461	0.367	0.397	0.342	0.321	0.357	0.362	0.297	0.319	0.758	0.957	0.831	0.803	0.858	0.505	0.649	0.512	0.481
LXF-289	0.958	0.887	0.829	0.85	0.718	0.739	0.795	0.771	0.762	0.35	0.37	0.385	0.387	0.4	0.717	0.616	0.673	0.701
NCI-H23	0.265	0.315	0.222	0.195	0.595	0.501	0.381	0.479	0.508	0.322	0.298	0.337	0.316	0.317	0.4	0.402	0.322	0.331
NCI-H322M	0.453	0.443	0.45	0.527	0.558	0.511	0.488	0.532	0.487	0.709	0.695	0.685	0.804	0.747	0.458	0.508	0.496	0.512
NCI-H358	0.374	0.349	0.385	0.367	0.323	0.364	0.3	0.327	0.363	0.18	0.238	0.226	0.208	0.205	0.125	0.134	0.121	0.11
NCI-H441	1.07	0.974	1.01	0.69	0.611	0.479	0.431	0.46	0.444	0.235	0.219	0.208	0.23	0.24	0.457	0.429	0.573	0.455
NCI-H460	0.695	0.663	0.598	0.662	0.394	0.43	0.316	0.385	0.367	0.442	0.525	0.493	0.498	0.447	0.115	0.139	0.138	0.104
NCI-H596	1.06	1.14	1.02	0.768	0.402	0.408	0.354	0.391	0.364	1.16	0.998	0.923	0.914	0.935	0.743	0.881	0.741	0.607
NCI-H647	0.466	0.441	0.366	0.271	0.443	0.386	0.435	0.439	0.45	0.379	0.562	0.461	0.424	0.332	0.478	0.391	0.405	0.484
NCI-H650	1.37	1.14	1.06	1.15	0.805	0.855		0.842	0.797	0.326	0.311	0.326	0.31	0.372	0.963	1.03	0.979	0.866
NCI-H727	0.455	0.428	0.322	0.427	0.354	0.419	0.404	0.37	0.398	0.918	1.07	1.04	0.704	0.891	0.348	0.367	0.421	0.381
NCI-H838	0.87	0.844	0.878	0.824	0.661	0.48	0.474	0.465	0.534	0.53	0.485	0.445	0.449	0.477	0.482	0.52	0.529	0.524
NCI-H1355	0.818	0.711	0.748	0.565	0.493	0.547	0.377	0.467	0.404	0.372	0.351	0.402	0.37	0.362	0.407	0.459	0.464	0.416
NCI-H1395	0.389	0.38	0.391	0.355	0.643	0.74	0.611	0.602	0.633	0.71	0.673	0.736	0.692	0.63	1.09	0.964	0.932	1.05
NCI-H1437	1.03	0.941	0.834	0.603	0.538	0.443	0.435	0.386	0.404	0.659	0.52	0.52	0.542	0.556	0.558	0.546	0.516	0.528
NCI-H1651	0.44	0.42	0.445	0.495	0.6	0.626	0.481	0.482	0.533	0.611	0.701	0.548	0.512	0.665	0.854	0.85	0.835	0.87
NCI-H1666	0.853	0.758	0.759	0.732	0.457	0.448	0.42	0.439	0.534	0.719	0.783	0.748	0.676	0.741	0.867	0.854	0.807	0.845
NCI-H1734	0.512	0.5	0.495	0.515	0.507	0.508	0.398	0.513	0.488	0.464	0.515	0.504	0.474	0.493	0.708	0.73	0.707	0.723

Cell Line	relative viability (Selumetinib + AZD7762; first compound 0.02 µM)	relative viability (Selumetinib + AZD7762; first compound 0.06325 µM)	relative viability (Selumetinib + AZD7762; first compound 0.2 µM)	relative viability (Selumetinib + AZD7762; first compound 0.6325 µM)	relative viability (Venetoclax + Pictilisib; first compound 0.01 µM)	relative viability (Venetoclax + Pictilisib; first compound 0.03162 µM)	relative viability (Venetoclax + Pictilisib; first compound 0.1 µM)	relative viability (Venetoclax + Pictilisib; first compound 0.3162 µM)	relative viability (Venetoclax + Pictilisib; first compound 1 µM)	relative viability (Venetoclax + Decitabine; first compound 0.01 µM)	relative viability (Venetoclax + Decitabine; first compound 0.03162 µM)	relative viability (Venetoclax + Decitabine; first compound 0.1 µM)	relative viability (Venetoclax + Decitabine; first compound 0.3162 µM)	relative viability (Venetoclax + Decitabine; first compound 1 µM)	relative viability (Selumetinib + Trametinib; first compound 0.02 µM)	relative viability (Selumetinib + Trametinib; first compound 0.06325 µM)	relative viability (Selumetinib + Trametinib; first compound 0.2 µM)	relative viability (Selumetinib + Trametinib; first compound 0.6325 µM)
NCI-H1755	0.522	0.352	0.393	0.451	0.346	0.482	0.398	0.449	0.465	0.737	0.754	0.714	0.739	0.713	0.78	0.753	0.778	0.752
NCI-H1792	0.571	0.447	0.417	0.393	0.228	0.306	0.161	0.262	0.278	0.522	0.506	0.468	0.502	0.463	0.439	0.521	0.452	0.402
NCI-H1793	0.408	0.394	0.406	0.297	0.371	0.445	0.328	0.241	0.321	0.301	0.58	0.521	0.45	0.49	0.424	0.414	0.443	0.436
NCI-H1915	0.81	0.663	0.646	0.453	0.953	0.911	0.894	0.979	0.92	0.23	0.279	0.258	0.258	0.258	0.311	0.302	0.288	0.257
NCI-H1944	0.448	0.438	0.401	0.427	0.369	0.37	0.355	0.383	0.36	0.478	0.447	0.492	0.481	0.407	0.442	0.398	0.406	0.389
NCI-H1975	0.69	0.599	0.662	0.527	0.351	0.33	0.258	0.284	0.282	0.358	0.371	0.414	0.393	0.43	0.332	0.34	0.37	0.31
NCI-H1993	0.842	0.733	0.634	0.666	1.03	0.802	0.8	0.685	0.78	0.505	0.673	0.541	0.621	0.552	0.624	0.604	0.527	0.528
NCI-H2085	0.914	0.906	0.864	0.722	0.458	0.48	0.417	0.507	0.502	0.549	0.59	0.582	0.566	0.565	0.545	0.62	0.398	0.513
NCI-H2087	1.1	0.993	1.16	0.525	1.08	1.08	0.832	0.921	0.789	0.316	0.335	0.267	0.23	0.29	0.19	0.171	0.231	0.204
NCI-H2126	1.03	0.981	0.987	0.903	0.482	0.538	0.487	0.528	0.488	0.579	0.616	0.601	0.56	0.548	0.569	0.574	0.6	0.622
NCI-H2170	0.874	0.88	0.711	0.838	0.266	0.3	0.296	0.306	0.302	0.442	0.46	0.431	0.451	0.473	0.934	0.957	0.853	0.921
NCI-H2347	0.678	0.568	0.454	0.343	0.606	0.606	0.668	0.746	0.123	0.616	0.59	0.651	0.662	0.738	0.264	0.294	0.287	0.278
NCI-H2405	0.729	0.492	0.561	0.466	0.505	0.472		0.394	0.402	0.763	0.683	0.74	0.717	0.633	0.643	0.638	0.669	0.615
NCI-H3122	0.886	0.808	0.785	0.552	0.797	0.619	0.576	0.568	0.683	0.349	0.419	0.378	0.373	0.432	0.202	0.212	0.199	0.266
PC-3 [JPC-3]	0.656	0.676	0.57	0.678	0.643	0.872	0.787	0.782	0.67	0.854	0.788	0.931	0.809	0.805	0.65	0.641	0.685	0.656
PC-14	0.364	0.397	0.276	0.313	0.588	0.649	0.693	0.81	0.604	0.298	0.164	0.224	0.207	0.213	0.847	0.74	0.732	0.604
RERF-LC-KJ	0.992	0.977	0.892	0.906	0.523	0.607	0.512	0.513	0.571	0.69	0.73	0.69	0.666	0.611	0.911	0.858	0.887	0.981
